These results are taken from patent publication US20180186753A1 (published 2018).

“And” between values parts separate entries of the source, which are not always exact repeats. Equal values may be shown once.

For the compound `CCN(C(=O)CCS)c1cn(-c2cccnc2)nc1Cl`, the melting point lay within 70 to 73 °C.
The figure for `C=CC(=O)Nc1c[nH]nc1Cl` is 182 °C (dec.); for `CC(=O)SCCC(=O)Nc1cn(-c2cccnc2)nc1Cl` it is 163 to 166 °C and 168 to 171 °C; for `C=CC(=O)N(CC)c1c[nH]nc1Cl` it is 156 to 160 °C.
As for `CCN(C(=O)CCSC(C)=O)c1c[nH]nc1Cl`, the melting point is 98 to 99 °C.
As for `CC(=O)SCCC(=O)Nc1c[nH]nc1Cl`, the figure is 140 to 143 °C; as for `C=CC(=O)Nc1cn(-c2cccnc2)nc1Cl`, 148 to 153 °C.
